Measured values published in patent US20230149507A1, “TREATMENT OF ALT CANCERS” (INSTITUTO DE MEDICINA MOLECULAR JOÃO LOBO ANTUNES, priority 2019, published 2023).

Key:
U-2 OS cells [1] = assay: Fragile telomeres in cells overexpressing FANCM variants; type: cell-based, human; settings: stable overexpression
Source text: (§1) (a) Schematic of FANCM domain interactions, mutations or deletions. For clarity, domains have been color coded by functional role (bottom panel). (b) Quantitation of metaphase-TIFs in U-2 OS cells stably overexpressing wild-type (FANCM+) or FANCM mutants. Scatterplot bars represent the mean±SEM. Out of 3 experiments, n≥110 metaphases scored for each mutant, *p<0.05, **p<0.005, Mann-Whitney test. (c) Quantitation of fragile telomeres in U-2 OS cells stably overexpressing wild-type (FANCM+) or FANCM mutants. Scatterplot bars represent the mean±SEM. Out of 3 experiments, n>100 metaphases scored for each mutant, *p<0.05, **p<0.005, Mann-Whitney test. (d) Representative dot blots and quantitation of C-circle assays in U-2 OS cells stably overexpressing wild-type (FANCM+) or FANCM domain mutants. C-circles were normalized to the mean of vector control. Error bars represent mean±SEM from n=3 experiments, *p<0.05, **p<0.005, Student's t-test. (e) Single molecule analysis of telomeric extension events (top panel) and length of extension events (bottom panel) in U-2 OS cells stably overexpressing wild-type (FANCM+) or FANCM domain mutants. Error bars represent mean±SEM of n≥350 fibers out of 3 experiments, *p<0.05, **p<0.005, Student's t-test.
(§2) Empty vector and wild-type FANCM (pCMV6-Myc-DDK) constructs were obtained from Origene Technologies. Wild type FANCM (SEQ ID NO: 2) and FANCM mutants (SEQ ID NOs: 19 to 28) were cloned into the pLenti-C-Myc-DDK-IRES-Neo backbone (Origene Technologies) by restriction enzyme subcloning of gene blocks synthesized by Integrated DNA Technologies (IDT). Lentivirus was produced by the Vector and Genome Engineering Facility (Children's Medical Research Institute). For stable overexpression, cells were transduced with lentivirus, allowed to recover for 24 h, and subject to G418 selection. Cells were maintained in G418 to ensure sustained overexpression.
Indirect IF and telomere FISH were performed on both interphase nuclei and metaphase spreads. For interphase IF experiments, cells were grown on coverslips or LabTek chamber slides (Thermo Scientific). Slides were prepared as described in Sobinoff et al., 2017. Cells on coverslips were washed twice with PBS, permeabilized with KCM buffer (120 mM KCl, 20 mM NaCl, 10 mM Tris pH 7.5, 0.1% Triton), washed again with PBST and PBS, then fixed with ice-cold 4% formaldehyde PBS solution at room temperature for 10 min. Coverslips were blocked with antibody-dilution buffer (20 mM Tris-HCl, pH 7.5, 2% (w/v) BSA, 0.2% (v/v) fish gelatin, 150 mM NaCl, 0.1% (v/v) Triton X-100 and 0.1% (w/v) sodium azide) and 0.1 mg/ml RNaseA for 30 min at 37° C. […]

U-2 OS cells [2] = assay: C-circle assay in cells overexpressing FANCM variants; type: cell-based, human; settings: stable overexpression, compared to vector control
Source text: as §1
FIG. 23. Defects in ALT phenotype suppression are exacerbated by overexpression of a double-mutant (DM) FANCM, in which both the MM2 domain (FF>AA) and the translocase domain (K117R) of FANCM are mutated. (a) Representative dot blots and quantitation of C-circle assays in U-2 OS cells stably overexpressing wild-type (WT) or FANCM domain mutants (K117R, FF>AA; DM). C-circles were normalized to the mean of empty vector control (EV). Error bars represent mean±SEM from n=3 experiments, *p<0.05, **p<0.005, Student's t-test. (b) Quantitation of APB frequency in U-2 OS cells overexpressing wild-type (WT) or FANCM mutants. Scatterplot bars represent the mean±SEM. Out of three experiments, n=150 cells were scored for each mutant, **p<0.005, Mann-Whitney test. (c) Quantitation of metaphase-TIFs in U-2 OS cells stably overexpressing wild-type (WT) or FANCM mutants. Scatterplot bars represent the mean±SEM. Out of three experiments, n=120 metaphases scored for each mutant, *p<0.05, **p<0.005, Mann-Whitney test. All statistical comparisons are relative to EV control.
as §2
C-circles were amplified with Phi29 polymerase using dATP, dTTP and dGTP overnight. Products were dot blotted onto Biodyne B membranes (Pall) and pre-hybridised in PerfectHyb Plus (Sigma) for at least 30 min. Radiolabeled telomeric C-probe was then added and blots were hybridized overnight at 37° C. (Henson et al., 2009). Blots were washed with 0.5×SSC, 0.1% SDS three times for 5 min each then exposed to phosphor screen. Imaging was performed on the Typhoon FLA 7000 system (GE Healthcare) with a PMT of 750 V.

Substance | number of fragile telomeres (telomere fragility) (U-2 OS cells [1]) | C-circle levels (U-2 OS cells [2])
K117R: FANCM mutant (SEQ ID NO: 20) substituted at K117R, DEAH domain disrupted | failed to suppress the phenotypes | did not cause a change in C-circle levels
FF>AA: FANCM mutant (SEQ ID NO: 25), double substitution F1232A/F1236A within the MM2 domain | significantly increased | approximate two-fold increase in C-circles
